Counter-ions that a name gives are not always drawn. Like-named read-outs stand apart in the source and are kept apart here.

The series can be described thus: Determination of solubility of Nic drug and solid dispersions. Type of series: physicochemical. As to conditions: for solubility at 2 h: 37 °C, thermodynamic from solid. As to the method:
After the drug was dissolved, an equivalent dose of the solid dispersion powder was further added, and oscillated for 2 h. The above operations were repeated until an insoluble solid occurred in the solution.

Regarding `COC(=O)C1=C(C)NC(C)=C(C(=O)OCCN(C)Cc2ccccc2)C1c1cccc([N+](=O)[O-])c1` (stereo not drawn) [β-Form Nic, nicardipine hydrochloride], the “Solubility of Saturated Citric Acid Solution mg/ml (37° C.)” value (saturated citric acid solution, hydrochloride) is 50 mg/mL. In addition, the “Solubility in Water mg/ml (37° C.)” value (water, hydrochloride) was 11 mg/mL.
As for `COC(=O)C1=C(C)NC(C)=C(C(=O)OCCN(C)Cc2ccccc2)C1c1cccc([N+](=O)[O-])c1` (stereo not drawn) [α-Form Nic, nicardipine hydrochloride], the solubility at 2 h was 46 mg/mL (saturated citric acid solution, aqueous buffer, saturated citric acid solution, read-out: Solubility of Saturated Citric Acid Solution mg/ml (37° C.)) and 7.2 mg/mL (water, water, water, read-out: Solubility in Water mg/ml (37° C.)).

The values above are taken from patent US20250144030A1, “OSMOTIC PUMP CONTROLLED-RELEASE TABLET OF INSOLUBLE DRUG AND PREPARATION METHOD THEREFOR” (BEIJING WEHAND-BIO PHARMACEUTICAL CO., LTD, priority 2021, published 2025).
